# According to PubChem BioAssay AID328 (DTP/NCI, 2004):
# Values joined by “and” are separate entries in the source; they are usually repeats but may differ in a detail not shown here. Equal entries are not always repeated. Toxic doses and inconclusive results are not listed.
# System: BDF1 mice, P388 leukemia ip, median survival T/C
# Assay: NCI In Vivo Anticancer Drug Screen. Data for tumor model P388 Leukemia (intraperitoneal) in B6D2F1 (BDF1) mice
# Settings: endpoint: median survival time, higher = longer survival
# In short: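 Antitumour effect was judged in vivo: survival in drug-treated mice, normalised to that of vehicle-dosed controls, gives the reported T/C.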
# [1] = dose: 25.0 mg/kg/injection, schedule: Q01DX009 (ip), vehicle: saline with Tween-80
# [2] = dose: 50.0 mg/kg/injection, schedule: Q01DX009 (ip), vehicle: saline with Tween-80
# [3] = dose: 50.0 mg/kg/injection, schedule: Q04DX003 (ip), vehicle: saline
# [4] = dose: 100.0 mg/kg/injection, schedule: Q01DX009 (ip), vehicle: saline with Tween-80
# [5] = dose: 6.25 mg/kg/injection, schedule: Q01DX009 (ip), vehicle: saline with Tween-80
# [6] = dose: 12.5 mg/kg/injection, schedule: Q01DX009 (ip), vehicle: saline with Tween-80
# [7] = dose: 100.0 mg/kg/injection, schedule: Q04DX003 (ip), vehicle: saline
# [8] = dose: 100.0 mg/kg/injection, schedule: Q01DX009 (ip), vehicle: Klucel (hydroxypropylcellulose) (HPC)
# [9] = dose: 100.0 mg/kg/injection, schedule: Q04DX003 (ip), vehicle: Klucel (hydroxypropylcellulose) (HPC)
# [10] = dose: 200.0 mg/kg/injection, schedule: Q01DX009 (ip), vehicle: Klucel (hydroxypropylcellulose) (HPC)
# [11] = dose: 200.0 mg/kg/injection, schedule: Q04DX003 (ip), vehicle: Klucel (hydroxypropylcellulose) (HPC)
# [12] = dose: 400.0 mg/kg/injection, schedule: Q01DX009 (ip), vehicle: Klucel (hydroxypropylcellulose) (HPC)
# [13] = dose: 200.0 mg/kg/injection, schedule: Q01DX009 (ip), vehicle: saline with Tween-80
# [14] = dose: 50.0 mg/kg/injection, schedule: Q01DX009 (ip), vehicle: saline
# [15] = dose: 100.0 mg/kg/injection, schedule: Q01DX009 (ip), vehicle: saline
# [16] = dose: 100.0 mg/kg/injection, schedule: Q04DX003 (ip), vehicle: saline with Tween-80
# [17] = dose: 200.0 mg/kg/injection, schedule: Q04DX003 (ip), vehicle: saline with Tween-80
compound,measurement,setting,value
O=c1[nH]cc(F)c(=O)n1C1OC(CO)C(O)C1O (centres undefined),T/C,"dose: 0.75 mg/kg/injection, schedule: Q01DX009 (ip), vehicle: saline",169 % of control and 180 % of control
same,T/C,"dose: 1.5 mg/kg/injection, schedule: Q01DX009 (ip), vehicle: saline",162 % of control and 217 % of control
same,T/C,"dose: 3.0 mg/kg/injection, schedule: Q01DX009 (ip), vehicle: saline",230 % of control and 188 % of control
same,T/C,"dose: 6.0 mg/kg/injection, schedule: Q01DX009 (ip), vehicle: saline",100 % of control
CCOC(=O)c1c(NC(=O)CCC(=O)Nc2sc(C)c(C)c2C(=O)OCC)sc(C)c1C,T/C,[1],109 % of control
same,T/C,[2],90 % of control
same,T/C,[3],87 % of control
same,T/C,[4],90 % of control
same,T/C,"dose: 400.0 mg/kg/injection, schedule: Q04DX003 (ip), vehicle: saline",91 % of control
O=C(C=C(C(F)(F)F)C(F)(F)F)c1cc(Cl)ccc1Cl,T/C,"dose: 3.12 mg/kg/injection, schedule: Q01DX009 (ip), vehicle: saline with Tween-80",95 % of control
same,T/C,[5],95 % of control
same,T/C,"dose: 7.0 mg/kg/injection, schedule: Q04DX003 (ip), vehicle: saline with Tween-80",112 % of control
same,T/C,"dose: 11.0 mg/kg/injection, schedule: Q04DX003 (ip), vehicle: saline with Tween-80",120 % of control
same,T/C,[6],103 % of control and 108 % of control
same,T/C,"dose: 12.5 mg/kg/injection, schedule: Q04DX003 (ip), vehicle: saline with Tween-80",115 % of control
same,T/C,"dose: 16.5 mg/kg/injection, schedule: Q04DX003 (ip), vehicle: saline with Tween-80",120 % of control
same,T/C,"dose: 25.0 mg/kg/injection, schedule: Q04DX003 (ip), vehicle: saline with Tween-80",113 % of control
same,T/C,"dose: 37.5 mg/kg/injection, schedule: Q04DX003 (ip), vehicle: saline with Tween-80",121 % of control
COC(=O)c1ccc(SCCCN2CCOCC2)cc1,T/C,[7],90 % of control
same,T/C,"dose: 200.0 mg/kg/injection, schedule: Q04DX003 (ip), vehicle: saline",113 % of control
CC(C)CCCC(C)C1CCC2C3CCC45CC4C(=O)CCC5(C)C3CCC12C (centres undefined),T/C,"dose: 100.0 mg/kg/injection, schedule: Q04DX003 (ip), vehicle: alcohol",115 % of control
same,T/C,"dose: 200.0 mg/kg/injection, schedule: Q04DX003 (ip), vehicle: alcohol",100 % of control
same,T/C,"dose: 400.0 mg/kg/injection, schedule: Q04DX003 (ip), vehicle: alcohol",100 % of control
CCOC(=O)c1cnn(-c2ccccc2)c1C,T/C,[8],104 % of control
same,T/C,[9],104 % of control
same,T/C,[10],100 % of control
same,T/C,[11],87 % of control
same,T/C,[12],90 % of control
same,T/C,"dose: 400.0 mg/kg/injection, schedule: Q04DX003 (ip), vehicle: Klucel (hydroxypropylcellulose) (HPC)",104 % of control
CNCCNC,T/C,"dose: 50.0 mg/kg/injection, schedule: Q01DX005 (ip), vehicle: saline",100 % of control
same,T/C,"dose: 100.0 mg/kg/injection, schedule: Q01DX005 (ip), vehicle: saline",98 % of control
same,T/C,"dose: 200.0 mg/kg/injection, schedule: Q01DX005 (ip), vehicle: saline",95 % of control
CS(=O)(=O)CC(O)(c1ccccc1)c1cccnc1 (centres undefined),T/C,[2],98 % of control
same,T/C,[4],104 % of control
same,T/C,[13],98 % of control
O=C1CCS2(CCC(=O)O2)O1,T/C,[14],98 % of control
same,T/C,[15],94 % of control
same,T/C,"dose: 200.0 mg/kg/injection, schedule: Q01DX009 (ip), vehicle: saline",98 % of control
Cc1ccc(C(=O)N(N)C2CCCCC2)cc1,T/C,[2],92 % of control
CCOP(=O)(NCCCOC)OCC,T/C,"dose: 3.5 mg/kg/injection, schedule: Q01DX009 (ip), vehicle: saline",105 % of control
same,T/C,"dose: 7.0 mg/kg/injection, schedule: Q01DX009 (ip), vehicle: saline",120 % of control
same,T/C,"dose: 9.0 mg/kg/injection, schedule: Q04DX003 (ip), vehicle: saline",122 % of control
same,T/C,"dose: 14.0 mg/kg/injection, schedule: Q01DX009 (ip), vehicle: saline",115 % of control
same,T/C,"dose: 14.0 mg/kg/injection, schedule: Q04DX003 (ip), vehicle: saline",104 % of control
same,T/C,"dose: 30.0 mg/kg/injection, schedule: Q01DX009 (ip), vehicle: saline",88 % of control
same,T/C,"dose: 45.0 mg/kg/injection, schedule: Q01DX009 (ip), vehicle: saline",88 % of control
CCN1c2ccccc2CC(CCN(C)Cc2ccccc2)(C(N)=O)c2ccccc21 (centres undefined),T/C,[4],101 % of control
CS(=O)(=O)OCCN(CCOS(C)(=O)=O)c1ccc(/C=N/Nc2ncnc3nc[nH]c23)cc1,T/C,"dose: 3.13 mg/kg/injection, schedule: Q04DX003 (ip), vehicle: saline with Tween-80",120 % of control
same,T/C,"dose: 66.0 mg/kg/injection, schedule: Q04DX003 (ip), vehicle: saline with Tween-80",156 % of control
same,T/C,[16],168 % of control and 182 % of control
same,T/C,"dose: 150.0 mg/kg/injection, schedule: Q04DX003 (ip), vehicle: saline with Tween-80",165 % of control
same,T/C,[17],159 % of control
NC1(CO)COC(c2ccccc2)OC1 (centres undefined),T/C,"dose: 25.0 mg/kg/injection, schedule: Q01DX009 (ip), vehicle: saline",100 % of control and 105 % of control
same,T/C,[14],105 % of control and 118 % of control
same,T/C,[3],97 % of control and 98 % of control and 109 % of control
same,T/C,[15],100 % of control and 107 % of control
same,T/C,[7],100 % of control and 102 % of control
CCn1cnc2c(=S)nc[nH]c21,T/C,"dose: 15.6 mg/kg/injection, schedule: Q01DX010 (ip), vehicle: saline",100 % of control and 115 % of control
same,T/C,"dose: 31.3 mg/kg/injection, schedule: Q01DX010 (ip), vehicle: saline",90 % of control and 105 % of control
same,T/C,"dose: 62.5 mg/kg/injection, schedule: Q01DX010 (ip), vehicle: saline",104 % of control and 115 % of control
C[n+]1ccc(Nc2ccc(NC(=O)c3ccc([N+](=O)[O-])cc3)cc2)cc1,T/C,"dose: 6.25 mg/kg/injection, schedule: Q01DX009 (ip), vehicle: water",108 % of control
same,T/C,"dose: 12.5 mg/kg/injection, schedule: Q01DX009 (ip), vehicle: water",96 % of control
same,T/C,"dose: 12.5 mg/kg/injection, schedule: Q04DX003 (ip), vehicle: water",100 % of control
same,T/C,"dose: 25.0 mg/kg/injection, schedule: Q01DX009 (ip), vehicle: water",90 % of control
same,T/C,"dose: 25.0 mg/kg/injection, schedule: Q04DX003 (ip), vehicle: water",98 % of control and 100 % of control (2×)
same,T/C,"dose: 50.0 mg/kg/injection, schedule: Q01DX009 (ip), vehicle: water",97 % of control
same,T/C,"dose: 100.0 mg/kg/injection, schedule: Q01DX009 (ip), vehicle: water",107 % of control
same,T/C,"dose: 150.0 mg/kg/injection, schedule: Q04DX003 (ip), vehicle: water",91 % of control
CCCCCCCCCOCC1CO1 (centres undefined),T/C,[2],111 % of control
same,T/C,[4],110 % of control
same,T/C,[13],101 % of control
NC(=O)c1c(N)sc2c1CCCC2,T/C,[5],86 % of control
same,T/C,[6],86 % of control
same,T/C,[1],95 % of control
CCCCCCC/C=C\c1cnc2nc(N)nc(N)c2n1,T/C,[16],92 % of control
same,T/C,[17],89 % of control
same,T/C,"dose: 400.0 mg/kg/injection, schedule: Q04DX003 (ip), vehicle: saline with Tween-80",92 % of control
O=C(c1ccccc1)C(Br)C(Br)C(=O)c1ccccc1 (centres undefined),T/C,[8],115 % of control
same,T/C,[10],100 % of control
same,T/C,[12],95 % of control
CN=C(NC#N)NCCSCc1nc[nH]c1C,T/C,"dose: 12.5 mg/kg/injection, schedule: Q01DX005 (ip), vehicle: Klucel (hydroxypropylcellulose) (HPC)",96 % of control
same,T/C,"dose: 25.0 mg/kg/injection, schedule: Q01DX005 (ip), vehicle: Klucel (hydroxypropylcellulose) (HPC)",92 % of control and 116 % of control
same,T/C,"dose: 50.0 mg/kg/injection, schedule: Q01DX005 (ip), vehicle: Klucel (hydroxypropylcellulose) (HPC)",101 % of control
same,T/C,"dose: 100.0 mg/kg/injection, schedule: Q01DX005 (ip), vehicle: Klucel (hydroxypropylcellulose) (HPC)",93 % of control and 101 % of control
same,T/C,"dose: 200.0 mg/kg/injection, schedule: Q01DX005 (ip), vehicle: Klucel (hydroxypropylcellulose) (HPC)",118 % of control
same,T/C,"dose: 400.0 mg/kg/injection, schedule: Q01DX005 (ip), vehicle: Klucel (hydroxypropylcellulose) (HPC)",95 % of control
O=C1CSc2cc[nH]c21,T/C,"dose: 50.0 mg/kg/injection, schedule: Q04DX003 (ip), vehicle: Klucel (hydroxypropylcellulose) (HPC)",90 % of control
same,T/C,[9],90 % of control
same,T/C,[11],104 % of control
